This note sets out measurements from ChEMBL document CHEMBL1153045, “Aminopiperidine-fused imidazoles as dipeptidyl peptidase-IV inhibitors” (Bioorg Med Chem Lett, 2009).

The target of data set [1] is Dipeptidyl peptidase 8 (Homo sapiens, UniProt Q6V1X1). As to the kind of experiment: Inhibition of human DPP8 expressed in baculovirus by continuous fluorescent assay.
Data set [2] concerns the target Dipeptidyl peptidase 9 (Homo sapiens, UniProt Q86TI2). As to the kind of experiment: Inhibition of human DPP9 expressed in baculovirus by continuous fluorescent assay.
Data set [3] can be described thus: Plasma clearance in rat at 1 mg/kg, iv or 2 mg/kg, po. Format: ADME, organism-based.
Data set [4] can be described thus: Half life in rat at 1 mg/kg, iv or 2 mg/kg, po. Format: ADME, organism-based. Particulars: in vivo.
The nature of data set [5]: Oral bioavailability in rat at 2 mg/kg, po. In kind it is ADME, organism-based. Particulars: in vivo.
Data set [6] can be described thus: Inhibition of rabbit L-type calcium channel. Set-up: species or system Oryctolagus cuniculus.
For data set [7], the target named is Cytochrome P450 2D6 (Homo sapiens, UniProt P10635). As to the kind of experiment: Inhibition of CYP2D6. In kind it is ADME.
Cytochrome P450 2D6, sequence (P10635 whole entry): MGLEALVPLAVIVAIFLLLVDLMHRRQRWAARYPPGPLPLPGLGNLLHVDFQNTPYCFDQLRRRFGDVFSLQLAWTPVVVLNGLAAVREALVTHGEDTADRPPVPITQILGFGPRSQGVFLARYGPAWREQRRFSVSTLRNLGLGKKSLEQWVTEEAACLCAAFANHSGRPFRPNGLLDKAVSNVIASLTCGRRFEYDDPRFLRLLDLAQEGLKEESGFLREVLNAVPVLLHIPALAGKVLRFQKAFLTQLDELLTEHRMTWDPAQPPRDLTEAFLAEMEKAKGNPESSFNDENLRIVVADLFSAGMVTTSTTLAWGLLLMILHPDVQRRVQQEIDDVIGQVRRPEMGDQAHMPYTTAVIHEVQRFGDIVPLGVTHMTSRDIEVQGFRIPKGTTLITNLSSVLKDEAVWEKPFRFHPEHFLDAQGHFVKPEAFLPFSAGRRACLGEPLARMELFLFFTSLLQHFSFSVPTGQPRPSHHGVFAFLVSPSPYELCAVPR
Data set [8] has as its target Dipeptidyl peptidase 2 (Homo sapiens, UniProt Q9UHL4). As to the kind of experiment: Inhibition of human recombinant QPP transfected in insect SF9 cells.
Data set [9] in a line: Plasma clearance in mouse at 1 mg/kg, iv or 2 mg/kg, po. Format: ADME, organism-based.
Data set [10] can be described thus: Plasma clearance in dog at 1 mg/kg, iv or 2 mg/kg, po. Format: ADME, organism-based, Canis lupus familiaris.
Data set [11] in a line: Plasma clearance in rhesus monkey at 1 mg/kg, iv or 2 mg/kg, po. In kind it is ADME, organism-based, Macaca mulatta.
Data set [12] in a line: Half life in mouse at 1 mg/kg, iv or 2 mg/kg, po. Format: ADME, organism-based. Particulars: in vivo.
Data set [13] in a line: Half life in dog at 1 mg/kg, iv or 2 mg/kg, po. In kind it is ADME, organism-based, Canis lupus familiaris. Particulars: in vivo.
Data set [14] in a line: Half life in rhesus monkey at 1 mg/kg, iv or 2 mg/kg, po. In kind it is ADME, organism-based, Macaca mulatta. Particulars: in vivo.
The nature of data set [15]: Oral bioavailability in mouse at 2 mg/kg, po. Format: ADME, organism-based. Particulars: in vivo.
Data set [16] is described as follows: Oral bioavailability in dog at 2 mg/kg, po. To be noted: in vivo. Format: ADME, organism-based, Canis lupus familiaris.
Data set [17] can be described thus: Oral bioavailability in rhesus monkey at 2 mg/kg, po. Particulars: in vivo. Format: ADME, organism-based, Macaca mulatta.
Data set [18] deals with Dipeptidyl peptidase 4 (Mus musculus, UniProt P28843). As to the kind of experiment: Inhibition of C57BL/6N mouse DPP4.
Dipeptidyl peptidase 4, sequence (P28843 whole entry): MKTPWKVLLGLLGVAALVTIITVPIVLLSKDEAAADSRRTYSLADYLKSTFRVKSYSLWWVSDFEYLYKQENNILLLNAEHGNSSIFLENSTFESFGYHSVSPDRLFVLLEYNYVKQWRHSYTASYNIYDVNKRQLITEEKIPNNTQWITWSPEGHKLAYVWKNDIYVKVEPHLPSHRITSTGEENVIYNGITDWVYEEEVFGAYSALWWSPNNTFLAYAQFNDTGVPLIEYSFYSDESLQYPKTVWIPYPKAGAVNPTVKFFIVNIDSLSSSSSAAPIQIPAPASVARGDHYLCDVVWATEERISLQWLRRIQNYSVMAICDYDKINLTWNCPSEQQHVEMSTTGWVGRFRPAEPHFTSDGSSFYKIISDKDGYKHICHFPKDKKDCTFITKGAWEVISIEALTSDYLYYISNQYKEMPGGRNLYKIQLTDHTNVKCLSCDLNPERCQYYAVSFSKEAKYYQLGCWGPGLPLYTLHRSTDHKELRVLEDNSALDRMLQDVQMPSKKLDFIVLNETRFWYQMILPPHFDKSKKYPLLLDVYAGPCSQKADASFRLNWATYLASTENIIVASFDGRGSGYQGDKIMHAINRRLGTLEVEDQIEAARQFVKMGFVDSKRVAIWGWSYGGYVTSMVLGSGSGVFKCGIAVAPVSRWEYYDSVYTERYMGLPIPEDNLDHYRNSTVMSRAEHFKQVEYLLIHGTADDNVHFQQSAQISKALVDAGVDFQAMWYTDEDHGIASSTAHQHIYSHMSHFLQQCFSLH
For data set [19], the system named is Mus musculus. As to the kind of experiment: Reduction in glucose excursion in C57BL/6N lean mouse at 0.1 mg/kg, po administered as single dose 60 mins before dextrose challenge by oral glucose tolerance test. Format: functional. Also noted: scale not given: the % may be the effect or the level left.
For data set [20], the system named is Mus musculus. As to the kind of experiment: Reduction in glucose excursion in C57BL/6N lean mouse at 3 mg/kg, po administered as single dose 60 mins before dextrose challenge by oral glucose tolerance test. In kind it is functional. Also noted: scale not given: the % may be the effect or the level left.
In data set [21] the test system is Mus musculus. As to the kind of experiment: Inhibition of DPP4 in C57BL/6N lean mouse at 1 mg/kg, po administered as single dose 60 mins before dextrose challenge by oral glucose tolerance test. Format: functional.
A short description of data set [22]: Plasma concentration in C57BL/6N lean mouse at 1 mg/kg, po administered as single dose 60 mins before dextrose challenge by oral glucose tolerance test. In kind it is ADME, organism-based. Also noted: dose 1 mg/kg, route oral.
The nature of data set [23]: Fraction unbound in mouse plasma. Format: ADME, cell-free.
Data set [24] concerns the target Voltage-gated inwardly rectifying potassium channel KCNH2 (Homo sapiens, UniProt Q12809). As to the kind of experiment: Inhibition of human ERG.
Data set [25] can be described thus: Metabolic stability in rat liver microsomes assessed as compound remaining after 60 mins. Format: ADME, Microsome. To be noted: read-out: Stability.
The nature of data set [26]: Metabolic stability in dog liver microsomes assessed as compound remaining after 60 mins. Format: ADME, Canis lupus familiaris, Microsome. Particulars: read-out: Stability.
Data set [27] can be described thus: Metabolic stability in rhesus monkey liver microsomes assessed as compound remaining after 60 mins. In kind it is ADME, Macaca mulatta, Microsome. To be noted: read-out: Stability.
Data set [28] in a line: Metabolic stability in human liver microsomes assessed as compound remaining after 60 mins. Particulars: read-out: Stability. In kind it is ADME, Microsome.
Data set [29] is described as follows: Metabolic stability in rat hepatocytes assessed as compound remaining after 60 mins. Particulars: read-out: Stability. In kind it is ADME, cell-based, Hepatocyte.
The nature of data set [30]: Metabolic stability in dog hepatocytes assessed as compound remaining after 60 mins. In kind it is ADME, cell-based, Canis lupus familiaris, Hepatocyte. Particulars: read-out: Stability.
The nature of data set [31]: Metabolic stability in rhesus monkey hepatocytes assessed as compound remaining after 60 mins. To be noted: read-out: Stability. Format: ADME, cell-based, Macaca mulatta, Hepatocyte.
Data set [32] can be described thus: Metabolic stability in human hepatocytes assessed as compound remaining after 60 mins. In kind it is ADME, cell-based, Hepatocyte. To be noted: read-out: Stability.

Dipeptidyl peptidase 8, sequence (Q6V1X1 whole entry): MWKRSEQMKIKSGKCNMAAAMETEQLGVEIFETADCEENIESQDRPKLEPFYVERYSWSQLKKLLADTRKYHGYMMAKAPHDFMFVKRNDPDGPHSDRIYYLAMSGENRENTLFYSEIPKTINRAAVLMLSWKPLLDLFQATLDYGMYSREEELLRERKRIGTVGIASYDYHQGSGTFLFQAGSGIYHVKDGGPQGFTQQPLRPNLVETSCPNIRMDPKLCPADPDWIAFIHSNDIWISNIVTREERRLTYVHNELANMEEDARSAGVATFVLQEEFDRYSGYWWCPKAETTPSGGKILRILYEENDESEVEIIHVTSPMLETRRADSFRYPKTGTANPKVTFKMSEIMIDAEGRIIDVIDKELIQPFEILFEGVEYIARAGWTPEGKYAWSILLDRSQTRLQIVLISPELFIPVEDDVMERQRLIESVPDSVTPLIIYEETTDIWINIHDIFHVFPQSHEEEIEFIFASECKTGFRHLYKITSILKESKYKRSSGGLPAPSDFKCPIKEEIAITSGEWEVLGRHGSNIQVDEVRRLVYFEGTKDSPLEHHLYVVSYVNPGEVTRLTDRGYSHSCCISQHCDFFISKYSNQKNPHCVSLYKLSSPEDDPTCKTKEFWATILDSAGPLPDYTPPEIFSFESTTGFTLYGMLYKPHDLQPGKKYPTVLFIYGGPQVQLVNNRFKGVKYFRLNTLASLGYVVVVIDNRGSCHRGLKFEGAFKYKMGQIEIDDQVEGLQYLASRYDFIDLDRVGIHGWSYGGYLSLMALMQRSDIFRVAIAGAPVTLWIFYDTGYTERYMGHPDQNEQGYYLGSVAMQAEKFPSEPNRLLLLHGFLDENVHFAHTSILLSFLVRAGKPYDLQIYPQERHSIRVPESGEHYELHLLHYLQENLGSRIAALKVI
Voltage-gated inwardly rectifying potassium channel KCNH2, sequence (Q12809 whole entry): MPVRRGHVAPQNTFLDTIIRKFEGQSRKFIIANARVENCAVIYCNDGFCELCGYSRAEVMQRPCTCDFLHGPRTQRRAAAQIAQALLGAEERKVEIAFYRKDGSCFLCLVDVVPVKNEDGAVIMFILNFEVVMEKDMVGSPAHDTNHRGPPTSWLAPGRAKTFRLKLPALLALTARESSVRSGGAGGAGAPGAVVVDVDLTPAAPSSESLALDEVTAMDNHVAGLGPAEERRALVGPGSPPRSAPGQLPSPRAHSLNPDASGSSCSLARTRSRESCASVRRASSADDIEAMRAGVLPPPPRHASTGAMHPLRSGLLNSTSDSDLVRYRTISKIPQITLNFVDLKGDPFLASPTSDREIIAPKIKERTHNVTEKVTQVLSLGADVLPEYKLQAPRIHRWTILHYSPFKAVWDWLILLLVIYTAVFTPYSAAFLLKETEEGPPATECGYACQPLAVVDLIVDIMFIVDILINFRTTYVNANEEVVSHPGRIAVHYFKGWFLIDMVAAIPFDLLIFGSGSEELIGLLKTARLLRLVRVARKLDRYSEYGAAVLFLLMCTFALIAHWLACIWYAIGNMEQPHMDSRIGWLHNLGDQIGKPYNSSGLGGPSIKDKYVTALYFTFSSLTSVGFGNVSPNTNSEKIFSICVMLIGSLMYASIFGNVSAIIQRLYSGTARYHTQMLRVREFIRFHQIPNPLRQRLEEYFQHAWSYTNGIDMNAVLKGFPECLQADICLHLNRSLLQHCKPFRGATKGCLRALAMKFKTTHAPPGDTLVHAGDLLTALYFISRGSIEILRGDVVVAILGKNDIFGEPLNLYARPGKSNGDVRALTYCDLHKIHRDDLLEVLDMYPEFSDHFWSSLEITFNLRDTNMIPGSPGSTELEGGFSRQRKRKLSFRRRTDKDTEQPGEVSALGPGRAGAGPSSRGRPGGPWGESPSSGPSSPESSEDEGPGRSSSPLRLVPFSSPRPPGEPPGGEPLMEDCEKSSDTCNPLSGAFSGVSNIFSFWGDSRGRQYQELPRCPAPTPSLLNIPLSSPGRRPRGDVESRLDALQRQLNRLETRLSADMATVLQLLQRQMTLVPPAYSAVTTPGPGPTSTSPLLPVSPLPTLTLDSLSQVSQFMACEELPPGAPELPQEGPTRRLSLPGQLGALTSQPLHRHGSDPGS
Dipeptidyl peptidase 9, sequence (Q86TI2 whole entry): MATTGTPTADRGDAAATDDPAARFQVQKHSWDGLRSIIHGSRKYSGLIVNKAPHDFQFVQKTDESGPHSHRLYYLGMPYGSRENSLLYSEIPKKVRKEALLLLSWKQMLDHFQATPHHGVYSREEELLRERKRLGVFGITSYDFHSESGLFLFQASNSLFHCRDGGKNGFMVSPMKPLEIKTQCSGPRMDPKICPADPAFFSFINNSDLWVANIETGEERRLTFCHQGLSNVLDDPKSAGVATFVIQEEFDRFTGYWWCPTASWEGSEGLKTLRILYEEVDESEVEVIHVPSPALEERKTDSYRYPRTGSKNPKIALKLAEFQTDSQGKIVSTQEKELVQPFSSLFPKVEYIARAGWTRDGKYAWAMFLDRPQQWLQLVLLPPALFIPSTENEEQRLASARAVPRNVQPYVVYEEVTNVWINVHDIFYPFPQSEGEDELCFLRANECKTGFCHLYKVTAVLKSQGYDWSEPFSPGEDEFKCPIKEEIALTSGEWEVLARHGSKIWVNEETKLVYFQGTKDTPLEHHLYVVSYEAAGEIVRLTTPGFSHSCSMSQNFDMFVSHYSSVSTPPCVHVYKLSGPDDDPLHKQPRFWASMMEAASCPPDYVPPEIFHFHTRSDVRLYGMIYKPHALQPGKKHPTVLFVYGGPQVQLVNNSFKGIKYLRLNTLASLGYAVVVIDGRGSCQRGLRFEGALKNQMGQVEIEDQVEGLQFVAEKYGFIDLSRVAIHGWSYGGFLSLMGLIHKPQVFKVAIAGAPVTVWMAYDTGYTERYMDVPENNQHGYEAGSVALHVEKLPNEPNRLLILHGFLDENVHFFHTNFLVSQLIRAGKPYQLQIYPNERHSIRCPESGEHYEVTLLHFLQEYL

With `N[C@H]1Cn2c(nc3c(F)cccc32)C[C@@H]1c1cc(F)c(F)cc1F`, the IC50 in data set [1] and in data set [2] was above 100 µM in each case.

On to `N[C@H]1Cn2c(nc3cnc(C(F)(F)F)cc32)C[C@@H]1c1cc(F)c(F)cc1F.O=C(O)C(F)(F)F.O=C(O)C(F)(F)F`, for which the clearance in [3] came to 1.4 mL/min/kg. For the same molecule, the half-life in data set [4] was 522 min. For the same molecule, the bioavailability in data set [5] was 110%. Further, the IC50 in [6] is 96 µM; in [7] it was 11 µM.

For `N[C@H]1Cn2c(nc3ccncc32)C[C@@H]1c1cc(F)c(F)cc1F`, the 50% inhibitory concentration (IC50) in data set [8] was above 100 µM.

As for `CS(=O)(=O)c1ccc2nc3n(c2c1)C[C@H](N)[C@@H](c1cc(F)c(F)cc1F)C3`, the IC50 in data set [8], in [1] and in data set [2] was above 100 µM throughout.

`N[C@H]1Cn2c(nc3ccccc32)C[C@@H]1c1cc(F)c(F)cc1F`: the IC50 in [1] and in data set [2] was above 100 µM each time.

With `COc1ccc2c(c1)nc1n2C[C@H](N)[C@@H](c2cc(F)c(F)cc2F)C1`, the IC50 in data set [1] was above 100 µM.

In turn, `N[C@H]1Cn2c(nc3ccc(C(F)(F)F)cc32)C[C@@H]1c1cc(F)c(F)cc1F` displayed an IC50 in [1] above 100 µM.

Take `Cl.N[C@H]1Cn2c(nc3cnccc32)C[C@@H]1c1cc(F)c(F)cc1F`: the IC50 in data set [8] was above 100 µM; in data set [1] it was above 100 µM; in data set [2], above 100 µM; in data set [6], above 100 µM; in data set [7], 13 µM; in data set [18], 45 nM. Further, the values for the clearance in data set [9], in data set [10] and in [11] were 36 mL/min/kg, 2.7 mL/min/kg and 35 mL/min/kg, respectively. Moreover, the half-life is 114 min in data set [12], 780 min in data set [13] and 60 min in data set [14]. The bioavailability in [15] is 73%; in [16] it was 120%; in [17], 11%. For the same molecule, the Activity in data set [19] is given as 27%; in [20], 49%. The same molecule displayed an inhibition in vivo at 1 mg/kg in [21] of 88%. In data set [22], the concentration at 1 h stood at 691 nM. Besides, the free fraction (fraction unbound) in [23] came out at 0.55.

In data set [1], `N[C@H]1Cn2c(nc3cc(F)ccc32)C[C@@H]1c1cc(F)c(F)cc1F` yielded an IC50 above 100 µM.

Consider `N[C@H]1Cn2c(nc3cc(C(F)(F)F)ccc32)C[C@@H]1c1cc(F)c(F)cc1F.O=C(O)C(F)(F)F`, for which the IC50 in data set [1] and in [2] was above 100 µM in each case. This molecule also gave a clearance in data set [3] of 4.8 mL/min/kg. In addition, in data set [4], the half-life is 456 min. In addition, in data set [5], the bioavailability was determined as 55%.

Take `CC(=O)Nc1ccc2c(c1)nc1n2C[C@H](N)[C@@H](c2cc(F)c(F)cc2F)C1`: the 50% inhibitory concentration (IC50) in data set [2] was above 100 µM.

Molecule `N[C@H]1Cn2c(nc3c(F)cc(F)cc32)C[C@@H]1c1cc(F)c(F)cc1F` came in with an IC50 in data set [1] above 100 µM.

Consider `N[C@H]1Cn2c(nc3cnc(F)cc32)C[C@@H]1c1cc(F)c(F)cc1F.O=C(O)C(F)(F)F.O=C(O)C(F)(F)F`, for which the IC50 in data set [1] is above 100 µM; in data set [24], 81 µM; in data set [6], 1.5 µM; in [7], 12 µM. This molecule registered a clearance in data set [3] of 0.5 mL/min/kg. For the same molecule, in data set [4], the half-life was 1020 min. Moreover, the bioavailability in data set [5] was determined as 87%.

`CS(=O)(=O)c1ccc2c(c1)nc1n2C[C@H](N)[C@@H](c2cc(F)c(F)cc2F)C1.O=C(O)C(F)(F)F`: the IC50 in [1] is above 100 µM; in data set [2] it was above 100 µM; in [6] it was above 100 µM; in [7], 1.5 µM. This molecule also came in with a clearance in data set [3] of 2.2 mL/min/kg. Further, the half-life in data set [4] is 204 min. The bioavailability in data set [5] was determined as 63%.

For the molecule `CCS(=O)(=O)c1ccc2c(c1)nc1n2C[C@H](N)[C@@H](c2cc(F)c(F)cc2F)C1`, the IC50 in data set [8], in data set [1] and in data set [2] was above 100 µM each time.

In [1], `N[C@H]1Cn2c(nc3ccc(F)cc32)C[C@@H]1c1cc(F)c(F)cc1F.O=C(O)C(F)(F)F` returned an IC50 above 100 µM. In data set [3], this molecule came in with a clearance of 25 mL/min/kg. The half-life in [4] is 84 min. In addition, in data set [5], the bioavailability worked out at 37%.

On to `CN(C)C(=O)c1ccc2c(c1)nc1n2C[C@H](N)[C@@H](c2cc(F)c(F)cc2F)C1`, for which the half-inhibitory concentration (IC50) in data set [1] and in [2] was above 100 µM in each case.

With `N[C@H]1Cn2c(nc3cccnc32)C[C@@H]1c1cc(F)c(F)cc1F`, the IC50 in data set [1] and in data set [2] was above 100 µM throughout.

In the case of `CS(=O)(=O)Nc1ccc2c(c1)nc1n2C[C@H](N)[C@@H](c2cc(F)c(F)cc2F)C1`, the IC50 in data set [1] was above 100 µM; in data set [24], 2.5 µM.

Take `N[C@H]1Cn2c(nc3cnccc32)C[C@@H]1c1cc(F)c(F)cc1F.O=C(O)C(F)(F)F.O=C(O)C(F)(F)F`: the IC50 in [8] (sf9) was above 100 µM; in data set [1] it was above 100 µM; in data set [2], above 100 µM; in [7], 13 µM. In [3], this molecule had a clearance of 8.7 mL/min/kg. This molecule gave a half-life in data set [4] of 156 min. In addition, the bioavailability in [5] was determined as 140%. Moreover, the remaining at 1 h in [25] turned out to be 83%; in data set [26], 92%; in [27], 69%; in [28], 97%; in data set [29], 94%; in data set [30], 99%. For the same molecule, the remaining at 1 h is 35% in data set [31] and 99% in [32].

Consider `N[C@H]1Cn2c(nc3ncccc32)C[C@@H]1c1cc(F)c(F)cc1F.O=C(O)C(F)(F)F.O=C(O)C(F)(F)F`, for which the IC50 was above 100 µM in [1]; above 100 µM in [2]; 90 µM in [24]; above 100 µM in data set [6]; 5.2 µM in data set [7]. This molecule came in with a clearance in data set [3] of 3.9 mL/min/kg. This molecule had a half-life in data set [4] of 228 min. In addition, in data set [5], the bioavailability was found to be 96%.

Take `N[C@H]1Cn2c(nc3c(F)c(F)c(F)cc32)C[C@@H]1c1cc(F)c(F)cc1F`: in data set [1], the IC50 is above 100 µM.

`Cc1ccc2c(c1)nc1n2C[C@H](N)[C@@H](c2cc(F)c(F)cc2F)C1`: the IC50 in data set [1] and in data set [2] was above 100 µM each time.

As for `N[C@H]1Cn2c(nc3ccc(OC(F)(F)F)cc32)C[C@@H]1c1cc(F)c(F)cc1F`, the IC50 in data set [2] was above 100 µM.

`N[C@H]1Cn2c(nc3cc(C(=O)O)ccc32)C[C@@H]1c1cc(F)c(F)cc1F.O=C(O)C(F)(F)F`: the half-inhibitory concentration (IC50) in data set [8], in data set [1] and in data set [2] was above 100 µM each time. In data set [3], this molecule yielded a clearance of 61 mL/min/kg. For the same molecule, in data set [4], the half-life is 24 min. Moreover, in data set [5], the bioavailability worked out at 24%.
